Laboratory results taken from patent US10376555B2, “Identification of cyclic peptide agonists of galanin receptor 2 and 3 guided by spexin solution structure” (Hong Kong Baptist University, priority 2017, dated 2019).
Entries after “also recorded” stand apart in the source; their conditions may differ. Read-outs that look alike come from different tables or passages of the source. Positions of bridges follow the written chain, without caps; N, C: chain ends. Residues, ends and D or L forms follow the SMILES beside them.

What was measured:
hGalR3 = target: T1, hGalR3 (Homo sapiens, UniProt O60755); test: SRE-Luc receptor activation assay, hGalR3; type: cell-based; conditions: for EC50: read-out: hGalR3 EC50; for hGalR3 Emax: Relative to hSPX Emax
T1 construct: host or cells: HEK293
T1 sequence (O60755 1-368): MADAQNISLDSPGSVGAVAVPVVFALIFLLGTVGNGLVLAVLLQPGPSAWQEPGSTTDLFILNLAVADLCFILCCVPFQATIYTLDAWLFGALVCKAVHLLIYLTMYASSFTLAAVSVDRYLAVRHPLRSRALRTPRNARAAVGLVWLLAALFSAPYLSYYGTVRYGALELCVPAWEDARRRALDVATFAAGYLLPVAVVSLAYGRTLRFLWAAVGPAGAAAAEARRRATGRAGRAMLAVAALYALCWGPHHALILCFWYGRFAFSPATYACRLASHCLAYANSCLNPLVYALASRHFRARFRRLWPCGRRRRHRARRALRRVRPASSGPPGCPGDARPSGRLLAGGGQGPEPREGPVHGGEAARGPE

hGalR1 = target: T2, hGalR1 (Homo sapiens, UniProt P47211); test: SRE-Luc receptor activation assay, hGalR1; type: cell-based; conditions: for hGalR1 EC50: HEK293 cells transfected with hGalR1, Gqi, SRE-Luc, 6 h treatment, full-dose; for hGalR1 Emax: Relative to hGAL Emax
T2 sequence (P47211 1-349): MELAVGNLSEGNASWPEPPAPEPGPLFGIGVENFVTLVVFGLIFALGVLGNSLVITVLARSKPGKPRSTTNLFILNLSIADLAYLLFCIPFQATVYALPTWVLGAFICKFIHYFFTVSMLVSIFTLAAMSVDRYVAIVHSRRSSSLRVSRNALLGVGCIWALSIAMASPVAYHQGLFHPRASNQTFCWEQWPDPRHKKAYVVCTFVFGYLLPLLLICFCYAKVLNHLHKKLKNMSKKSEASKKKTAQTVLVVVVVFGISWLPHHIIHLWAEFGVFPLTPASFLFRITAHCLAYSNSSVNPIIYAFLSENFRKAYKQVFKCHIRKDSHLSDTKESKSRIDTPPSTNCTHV

[1] = In vitro serum stability assay (RP-HPLC); type: in vitro ADME, rat
Experimental: The serum stability of CSAs was tested using an in vitro assay followed by reverse-phase high-performance liquid chromatography (RP-HPLC) analysis (FIGS. 33-38).
750 μL RPMI medium 1640 (Thermo Fisher Scientific) was mixed with […] rat serum, and incubated at 37° C. for 15 min before adding peptide. The peptide dissolved in water was added into the reaction buffer to make a final concentration of 100 μg/mL. At each time point (5, 15, 30, 60, 120, 240, and 480 min), 100 μL reaction solution were taken, and mixed with 200 μL 6% trichloroacetic acid (TCA, Sigma-Aldrich). The resulting cloudy solution was cooled at 4° C. for 15 min, and centrifuged for 10 mins at 13,000 rpm. The supernatant was then analyzed by RP-HPLC. The extent of intact peptide was calculated based on the peak area and was normalized using a control sample.

[2] = test system: male mice (C57BL/6J) with diet-induced obesity (DIO); test: Body weight gain in diet-induced obesity mice, LH101, 14-days-treatment; type: in vivo; conditions: 25 μg/kg i.p., vs PBS controls
Experimental: Male mice (C57BL/6J) weighing about 22-25 g were purchased from the Laboratory Animal Services Center, The Chinese University of Hong Kong, Hong Kong. The animals were fed with a high fat diet (Research Diets, New Brunswick, N.J.) ad libitum with free access to water and were housed in rooms maintained at 22±1° C. with a 12 h light/dark cycle (lights on 6:00-18:00). Animals were constantly acclimated to the facility until the body weight reached 45-50 g. Then all the diet induced obese mice were divided into 2 groups randomly for the drug treatment. The Animal Ethics Committees of Hong Kong Baptist University, approved all experimental protocols, in accordance with “Institutional Guidelines and Animal Ordinance” from Department of Health, Hong Kong Special Administrative Region.

hGalR2 = target: T3, hGalR2 (Homo sapiens, UniProt O43603); test: SRE-Luc receptor activation assay, hGalR2; type: cell-based; conditions: for hGalR2 Emax: Relative to hSPX Emax
T3 construct: host or cells: HEK293
T3 sequence (O43603 1-387): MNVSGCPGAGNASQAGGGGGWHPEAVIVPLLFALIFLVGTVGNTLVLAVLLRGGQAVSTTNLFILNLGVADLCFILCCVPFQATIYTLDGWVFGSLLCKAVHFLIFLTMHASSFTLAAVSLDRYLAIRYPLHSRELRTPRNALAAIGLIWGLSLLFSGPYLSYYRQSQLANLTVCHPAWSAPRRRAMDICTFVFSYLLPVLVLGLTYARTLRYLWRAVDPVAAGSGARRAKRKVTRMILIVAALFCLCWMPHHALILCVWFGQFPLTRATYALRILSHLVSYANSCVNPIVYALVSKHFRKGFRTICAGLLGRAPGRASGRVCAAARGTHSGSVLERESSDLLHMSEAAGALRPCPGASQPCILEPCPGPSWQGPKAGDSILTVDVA

[3] = test system: C57BL/6J mice with high-fat-diet (HFD) induced obesity; test: Body weight gain in high-fat-diet induced obesity mice, LH101 (Ac) vs hSPX, 18 day treatment; type: in vivo; conditions: for food intake: recorded every 3 days
Experimental: Female and male C57BL/6J mice weighing 22-25 g were purchased from the Laboratory Animal Services Center, The Chinese University of Hong Kong, Hong Kong. The animals were fed with rodent diet with 60 kcal % fat (Research Diets, New Brunswick, N.J.) ad libitum with free access to water and were housed in rooms maintained at 22±1° C. with a 12 h light/dark cycle (lights on 6:00-18:00). Animals were constantly acclimated to the facility until the body weight reached no less than 30 g. Then all the diet-induced obese mice were divided into 3 groups randomly for the drug treatment. Mice body weight was daily monitored, and the food intake amount was recorded every 3 days. The Animal Ethics Committee of Hong Kong Baptist University approved all experimental protocols in accordance with “Institutional Guidelines and Animal Ordinance” from Department of Health, Hong Kong Special Administrative Region.

[4] = HEK293 cells transfected with hGalR3, Gqi, SRE-Luc, 6 h treatment, full-dose
[5] = rat, serum, serum half-life (t1/2)
[6] = HEK293 cells transfected with hGalR2, Gqi, SRE-Luc, 6 h treatment, full-dose, read-out: hGalR2 EC50

## CSCC[C@@H]1NC(=O)[C@H](C)NC(=O)[C@H](CCC(N)=O)NC(=O)[C@@H]2CCCN2C(=O)[C@H]([C@@H](C)O)NC(=O)[C@H](Cc2c[nH]c3ccccc23)NC(=O)[C@@H](N)CSSC[C@@H](C(=O)N[C@@H](CCC(N)=O)C(N)=O)NC(=O)CNC(=O)[C@H](CCCCN)NC(=O)[C@H](CC(C)C)NC(=O)[C@H](Cc2ccc(O)cc2)NC(=O)[C@H](CC(C)C)NC1=O [LH101] (H-CWTPQAMLYLKGCQ-NH2; disulfide 1-13)
hGalR3; [4]
  EC50: 1560 nM
hGalR3
  hGalR3 Emax: 1.04
hGalR1
  hGalR1 EC50: N.M.
  hGalR1 Emax: N.M.
[1]; rat
  fold enhancement of half-life: 5.3 fold
[1]; rat, serum
  remaining at 8 h, 100 μg/mL: 46%
[1]; [5]
  half-life at 100 μg/mL: 5.93 h
[2]
  body weight gain: significantly suppressed the body weight gain; also recorded: suppressed mice body weight gain; also recorded: does inhibit body weight gain
hGalR2; [6]
  EC50: 1190 nM
hGalR2
  hGalR2 Emax: 1.09

## CSCC[C@H](NC(=O)[C@H](C)NC(=O)[C@H](CCC(N)=O)NC(=O)[C@@H]1CCCN1C(=O)[C@@H](NC(=O)[C@H](Cc1c[nH]c2ccccc12)NC(=O)[C@@H](N)CC(N)=O)[C@@H](C)O)C(=O)N[C@@H](CC(C)C)C(=O)N[C@@H](Cc1ccc(O)cc1)C(=O)N[C@@H](CC(C)C)C(=O)N[C@@H](CCCCN)C(=O)NCC(=O)N[C@@H](C)C(=O)N[C@@H](CCC(N)=O)C(N)=O [hSPX, reference compound]
hGalR3
  hGalR3 Emax: 1.00
hGalR1
  hGalR1 EC50: N.M.
  hGalR1 Emax: N.M.
[1]; [5]
  half-life at 100 μg/mL: 1.11 h
[3]; 18 day treatment
  area-under-curve (AUC) of body weight gain curve: significant body weight control efficacy
  time after which weight gain started to wane: 10 days
[3]
  food intake: inhibitory effects on food consumption
hGalR2
  hGalR2 Emax: 1.00

## CC(=O)N[C@H]1CSSC[C@@H](C(=O)N[C@@H](Cc2c[nH]cn2)C(=O)N[C@@H](C)C(=O)N[C@H](C(N)=O)C(C)C)NC(=O)CNC(=O)[C@H](CC(C)C)NC(=O)[C@H](CC(C)C)NC(=O)[C@H](Cc2ccc(O)cc2)NC(=O)CNC(=O)[C@H](C)NC(=O)[C@H](CO)NC(=O)[C@H](CC(N)=O)NC(=O)[C@H](CC(C)C)NC(=O)[C@H]([C@@H](C)O)NC(=O)[C@H](Cc2c[nH]c3ccccc23)NC1=O [LH201 (Ac)] (Ac-CWTLNSAGYLLGCHAV-NH2; disulfide 1-13)
hGalR3; [4]
  hGalR3 EC50: N.M.
hGalR3
  hGalR3 Emax: 0.20
hGalR3; full-dose SRE-Luc
  activity on GalR3, in words: No activity
hGalR1
  hGalR1 EC50: N.M.
  hGalR1 Emax: 0.22
hGalR1; full-dose SRE-Luc
  activity on GalR1, in words: No activity
[1]; rat serum in RPMI 1640, 37° C., 100 μg/mL, read-out: serum half-life (t1/2)
  half-life at 100 μg/mL: 0.865 h
hGalR2
  EC50: 480 nM
  hGalR2 Emax: 1.16

## CSCC[C@@H]1NC(=O)[C@H](C)NC(=O)[C@H](CCC(N)=O)NC(=O)[C@@H]2CCCN2C(=O)[C@H]([C@@H](C)O)NC(=O)[C@H](Cc2c[nH]c3ccccc23)NC(=O)[C@@H](NC(C)=O)CSSC[C@@H](C(=O)N[C@@H](CCC(N)=O)C(N)=O)NC(=O)CNC(=O)[C@H](CCCCN)NC(=O)[C@H](CC(C)C)NC(=O)[C@H](Cc2ccc(O)cc2)NC(=O)[C@H](CC(C)C)NC1=O [LH101 (Ac)] (Ac-CWTPQAMLYLKGCQ-NH2; disulfide 1-13)
hGalR3; [4]
  EC50: 390 nM
hGalR3
  hGalR3 Emax: 1.00
hGalR1
  hGalR1 EC50: N.M.
  hGalR1 Emax: N.M.
[1]; rat
  fold enhancement of half-life: 29.1 fold
[1]; rat, serum, half-life time in serum
  half-life at 100 μg/mL: > 24 h
[1]; [5]
  half-life at 100 μg/mL: 32.9 h
[3]; 25 μg/kg i.p., 18 day treatment, vs PBS controls
  body weight gain: significantly suppressed the body weight gain
[3]; 18 day treatment
  area-under-curve (AUC) of body weight gain curve: significant body weight control efficacy
  time after which weight gain started to wane: 8 days
[3]
  food intake: inhibitory effects on food consumption
hGalR2; [6]
  EC50: 380 nM
hGalR2
  hGalR2 Emax: 0.97
